{"source": "ChEMBL document CHEMBL1201862", "about": "“PubChem BioAssay data set” (2004)", "assay_in_all_cases": "inhibition of tumour cell growth, NCI panel, 48 h", "key": {"[1]": {"tested_on": "A498"}, "[2]": {"tested_on": "ACHN"}, "[3]": {"tested_on": "HCT-116"}, "[4]": {"tested_on": "HCT-15"}, "[5]": {"tested_on": "HT-29"}, "[6]": {"tested_on": "K562"}, "[7]": {"tested_on": "M14"}, "[8]": {"tested_on": "MOLT-4"}, "[9]": {"tested_on": "NCI-H226"}, "[10]": {"tested_on": "RPMI-8226"}, "[11]": {"tested_on": "RXF 393"}, "[12]": {"tested_on": "SF-295"}, "[13]": {"tested_on": "SF-539"}, "[14]": {"tested_on": "SK-MEL-28"}, "[15]": {"tested_on": "SK-MEL-2"}, "[16]": {"tested_on": "SK-MEL-5"}, "[17]": {"tested_on": "SNB-75"}, "[18]": {"tested_on": "SW-620"}, "[19]": {"tested_on": "U-251"}, "[20]": {"tested_on": "UACC-62"}}, "note": "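Grown in 96-well plates, cells were treated for 48 hours with each compound at five concentrations. Insufficient inhibition: endpoint recorded as highest concentration tested. GI50 is the concentration that inhibits growth by half.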 Activity calls are given as the source filed them. No stated cut-off is given here; in the data, active = GI50 up to about 1.1 µM and inactive = higher."}
{"smiles": "O=C(Nc1ccc(Cl)c(Cl)c1)C(=O)C(C(=O)c1ccccc1F)C1OC(=O)c2ccccc21", "note": "(stereo not given)", "values": [{"measurement": "GI50", "setting": "[1]", "value": "37.8 µM (inactive)"}, {"measurement": "GI50", "setting": "[2]", "value": "31.9 µM (inactive)"}, {"measurement": "GI50", "setting": "[3]", "value": "16.8 µM (inactive)"}, {"measurement": "GI50", "setting": "[4]", "value": 13.7, "unit": "µM"}, {"measurement": "GI50", "setting": "[5]", "value": "34.4 µM (inactive)"}, {"measurement": "GI50", "setting": "[6]", "value": "22 µM (inactive)"}, {"measurement": "GI50", "setting": "[7]", "value": "16.4 µM (inactive)"}, {"measurement": "GI50", "setting": "[8]", "value": "29.6 µM (inactive)"}, {"measurement": "GI50", "setting": "[9]", "value": "17.9 µM (inactive)"}, {"measurement": "GI50", "setting": "[10]", "value": "18.2 µM (inactive)"}, {"measurement": "GI50", "setting": "[11]", "value": "20.7 µM (inactive)"}, {"measurement": "GI50", "setting": "[12]", "value": "37.5 µM (inactive)"}, {"measurement": "GI50", "setting": "[13]", "value": "11.1 µM (inactive)"}, {"measurement": "GI50", "setting": "[14]", "value": "25.3 µM (inactive)"}, {"measurement": "GI50", "setting": "[15]", "value": "12.3 µM (inactive)"}, {"measurement": "GI50", "setting": "[16]", "value": "15.9 µM (inactive)"}, {"measurement": "GI50", "setting": "[17]", "value": "18.6 µM (inactive)"}, {"measurement": "GI50", "setting": "[18]", "value": "23.9 µM (inactive)"}, {"measurement": "GI50", "setting": "[19]", "value": "12.7 µM (inactive)"}, {"measurement": "GI50", "setting": "[20]", "value": "14.8 µM (inactive)"}]}
{"smiles": "ON(Cc1ccccc1)C(=S)c1ccccc1", "values": [{"measurement": "GI50", "setting": "[1]", "value": "25.3 µM (inactive)"}, {"measurement": "GI50", "setting": "[2]", "value": "4.21 µM (inactive)"}, {"measurement": "GI50", "setting": "[3]", "value": "3.4 µM (inactive)"}, {"measurement": "GI50", "setting": "[4]", "value": 2.6, "unit": "µM"}, {"measurement": "GI50", "setting": "[5]", "value": "2.88 µM (inactive)"}, {"measurement": "GI50", "setting": "[6]", "value": "3.27 µM (inactive)"}, {"measurement": "GI50", "setting": "[7]", "value": "5.21 µM (inactive)"}, {"measurement": "GI50", "setting": "[8]", "value": "1.09 µM (active)"}, {"measurement": "GI50", "setting": "[9]", "value": "20.1 µM (inactive)"}, {"measurement": "GI50", "setting": "[10]", "value": "2.77 µM (inactive)"}, {"measurement": "GI50", "setting": "[11]", "value": "8.97 µM (inactive)"}, {"measurement": "GI50", "setting": "[12]", "value": "3.42 µM (inactive)"}, {"measurement": "GI50", "setting": "[13]", "value": "5.43 µM (inactive)"}, {"measurement": "GI50", "setting": "[14]", "value": "11.4 µM (inactive)"}, {"measurement": "GI50", "setting": "[15]", "value": "2.62 µM (inactive)"}, {"measurement": "GI50", "setting": "[16]", "value": "4.47 µM (inactive)"}, {"measurement": "GI50", "setting": "[17]", "value": "19 µM (inactive)"}, {"measurement": "GI50", "setting": "[18]", "value": "4.23 µM (inactive)"}, {"measurement": "GI50", "setting": "[19]", "value": "3.64 µM (inactive)"}, {"measurement": "GI50", "setting": "[20]", "value": "2.43 µM (inactive)"}]}
{"smiles": "CC1=CC(=O)CC2(C)CCC(C(C)CC(=O)CC(C)C)CC12", "note": "(stereo not given)", "values": [{"measurement": "GI50", "setting": "[1]", "value": "> 100 µM (inactive)"}, {"measurement": "GI50", "setting": "[2]", "value": "17.4 µM (inactive)"}, {"measurement": "GI50", "setting": "[3]", "value": "16.1 µM (inactive)"}, {"measurement": "GI50", "setting": "[4]", "value": 38.6, "unit": "µM"}, {"measurement": "GI50", "setting": "[5]", "value": "25.8 µM (inactive)"}, {"measurement": "GI50", "setting": "[6]", "value": "24.5 µM (inactive)"}, {"measurement": "GI50", "setting": "[7]", "value": "17.2 µM (inactive)"}, {"measurement": "GI50", "setting": "[8]", "value": "18.3 µM (inactive)"}, {"measurement": "GI50", "setting": "[9]", "value": "24.9 µM (inactive)"}, {"measurement": "GI50", "setting": "[10]", "value": "20.2 µM (inactive)"}, {"measurement": "GI50", "setting": "[11]", "value": "23.6 µM (inactive)"}, {"measurement": "GI50", "setting": "[12]", "value": "32.5 µM (inactive)"}, {"measurement": "GI50", "setting": "[13]", "value": "16.4 µM (inactive)"}, {"measurement": "GI50", "setting": "[14]", "value": "26 µM (inactive)"}, {"measurement": "GI50", "setting": "[15]", "value": "78.9 µM (inactive)"}, {"measurement": "GI50", "setting": "[16]", "value": "20.4 µM (inactive)"}, {"measurement": "GI50", "setting": "[17]", "value": "> 100 µM (inactive)"}, {"measurement": "GI50", "setting": "[18]", "value": "22.7 µM (inactive)"}, {"measurement": "GI50", "setting": "[19]", "value": "41.9 µM (inactive)"}, {"measurement": "GI50", "setting": "[20]", "value": "25.5 µM (inactive)"}]}
{"smiles": "S=C=NCCc1ccccc1", "note": "[PHENETHYLISOTHIOCYANATE]", "values": [{"measurement": "GI50", "setting": "[1]", "value": "0.431 µM (active)"}, {"measurement": "GI50", "setting": "[2]", "value": "1.56 µM (inactive)"}, {"measurement": "GI50", "setting": "[3]", "value": "0.453 µM (active)"}, {"measurement": "GI50", "setting": "[4]", "value": 0.228, "unit": "µM"}, {"measurement": "GI50", "setting": "[5]", "value": "0.219 µM (active)"}, {"measurement": "GI50", "setting": "[6]", "value": "0.226 µM (active)"}, {"measurement": "GI50", "setting": "[7]", "value": "0.46 µM (active)"}, {"measurement": "GI50", "setting": "[8]", "value": "0.53 µM (active)"}, {"measurement": "GI50", "setting": "[9]", "value": "1.49 µM (inactive)"}, {"measurement": "GI50", "setting": "[10]", "value": "0.179 µM (active)"}, {"measurement": "GI50", "setting": "[11]", "value": "0.443 µM (active)"}, {"measurement": "GI50", "setting": "[12]", "value": "1.57 µM (inactive)"}, {"measurement": "GI50", "setting": "[13]", "value": "0.207 µM (active)"}, {"measurement": "GI50", "setting": "[14]", "value": "0.71 µM (active)"}, {"measurement": "GI50", "setting": "[15]", "value": "0.402 µM (active)"}, {"measurement": "GI50", "setting": "[16]", "value": "0.325 µM (active)"}, {"measurement": "GI50", "setting": "[17]", "value": "2.65 µM (inactive)"}, {"measurement": "GI50", "setting": "[18]", "value": "0.31 µM (active)"}, {"measurement": "GI50", "setting": "[19]", "value": "0.794 µM (active)"}, {"measurement": "GI50", "setting": "[20]", "value": "0.839 µM (active)"}]}
